Source: patent US20060166941A1, “Treatment and/or prevention of non-viral epithelial damage” (Epistem Limited, priority 2003, published 2006)
“And” between values parts separate entries of the source, which are not always exact repeats. Equal entries are not always repeated. Structures can show the parent of a compound that is named as a salt.

Key:
[1] = test system: digestive epithelia; assay: Diarrhoea prevention assay, 14 Gy X-ray partial body radiation; type: in vivo, mice; settings: for incidence of diarrhoea (perianal soilage): 5 mice
From the text: Diarrhoea Prevention Assay The ability of foscarnet (phosphonoformic acid trisodium salt hexahydrate) to prevent diarrhoea following radiological injury to digestive epithelia was investigated. The model of radiological insult used was treatment with 14 Gy X-ray partial body radiation (head and thorax lead shielded) at a dose rate of 0.7 Gy/minute. Such radiation treatment provides a model of radiotherapy administered to patients undergoing treatment for cancer. Three experimental groups, each of five mice, were established as set out below: Group 1: Received intra-peritoneal injection, containing 50 mg foscarnet/kilogram bodyweight, in sterile water, one hour prior to radiation treatment. Received one further identical injection on each of the next five days following radiation treatment. Group 2: Received intra-peritoneal injection, containing 100 mg foscarnet/kilogram bodyweight, in sterile water, one hour prior to radiation treatment. Received one further identical injection on each of the next five days following radiation treatment. Group 3: Vehicle control. […] Received intra-peritoneal injection, of sterile water, one hour prior to radiation treatment. Received one further identical injection on each of the next five days following radiation treatment. The incidences of both diarrhoea (measured by assessing perianal soilage twice daily) and morbidity among experimental animals were measured over the course of the seven days following radiation treatment.

[2] = test system: clonogenic stem cells of the digestive epithelium; assay: In vivo protection of intestinal epithelium clonogenic stem cells, chemotherapy drug (5-Flurouracil) damage; parameters: species or system mice
Protocol: In Vivo Protection of Intestinal Epithelium Clonogenic Stem Cells—Chemotherapy Drug Damage.
The ability of foscarnet (phosphonoformic acid trisodium salt hexahydrate) to prevent cytotoxic damage to clonogenic stem cells of the digestive epithelium was illustrated by the following experiment.
The model of cytotoxic insult used was treatment with 2 doses of 5-Flurouracil 6 hours apart at either 400 mg or 500 mg of 5-Fluorouracil/kilogram bodyweight. Such cytotoxic treatment provides a model of chemotherapy administered to patients undergoing treatment for cancer.
Five experimental groups, each of five mice, were established as set out below:
Group 1: Received intra-peritoneal injection, containing 50 mg foscarnet/kilogram bodyweight, in sterile water, one hour prior to the first cytotoxic treatment (400 mg 5-Flurouracil/kilogram bodyweight). Received one further identical injection on each of the three days following cytotoxic treatment. […]
Group 3: Vehicle control. Received intra-peritoneal injection, of sterile water, one hour prior to both cytotoxic treatments (400 mg 5-Flurouracil/kilogram bodyweight). Received one further identical injection on each of the three days following cytotoxic treatment. […]
On the fourth day after treatment the animals of each group were killed, and intestinal tissue harvested for histological analysis. Tissue sections were stained with haemotoxylin and eosin, and were analysed for the presence of regenerating intestinal crypts. Regenerating intestinal crypts are derived from one or more surviving clonogenic stem cells, whereas sterilised crypts (containing no surviving stem cells) disappear within two days of irradiation. The number of regenerating crypts per intestinal circumference was counted, and the mean crypt width measured. Scores for each animal were then corrected to account for the probability of preferentially scoring larger crypts according to the following equation: [formula]
For each treatment a Protection Factor was calculated using the following equation: corrected crypts/circumference treated corrected crypts/circumference untreated (vehicle)

[3] = test system: intestinal crypt cells; assay: Epithelial cell kinetic evaluation following oral administration (BrdUrd labelling, tolerability); type: in vivo; settings: 500 mg/kg oral gavage once a day for 4 days
Protocol: Epithelial Cell Kinetic Evaluation Following Oral Administration of Foscarnet Phosphonoformic Acid Trisodium Salt Hexahydrate).
Intestinal epithelial cell stimulation following an oral application of foscarnet (phosphonoformic acid trisodium salt hexahydrate) was illustrated by the following experiment.
Two experimental groups, each of three mice, were established as set out below:
Group 1: Received oral gavage, containing 500 mg foscarnet/kilogram bodyweight, in sterile water, once a day for 4 days. On the fifth day the animals received a pulse of 10 mg Bromodeoxyuridine (BrdUrd) and 40 minutes laster were killed and small intestine and kidneys harvested for analysis.
Group 2: Received oral gavage of sterile water, once a day for 4 days On the fifth day the animals received a pulse of 10 mg Bromodeoxyuridine and 40 minutes laster were killed and small intestine and kidneys harvested for analysis.
Slides were immunohistochemically labelled for BrdUrd and counterstained with thionin to assess intestinal epithelial cell kinetic changes with oral administration of foscarnet. To assess epithelial cell kinetic changes, 50 small intestinal crypts per animal were quantified on a cell positional basis for the number of positively labelled S-phase cells at each cell position in the crypt. Quantification starts at the bottom of the crypt (cell position 1) and continues up one side of the crypt assessing each cell in turn to the crypt villus junction.

[4] = 50 mg foscarnet 1 hr prior to 1st dose of 5-Flurouracil (400 mg/kg x 2 6 hrs apart) and D1, D2, D3, group Average
[5] = 50 mg foscarnet 1 hr prior to 1st dose of 5-Flurouracil (400 mg/kg x 2 6 hrs apart) and D1, D2, D3, individual mice
[6] = 50 mg foscarnet 1 hr prior to both doses of 5-Flurouracil (400 mg/kg x 2 6 hrs apart) and D1, D2, D3, group Average
[7] = 50 mg foscarnet 1 hr prior to both doses of 5-Flurouracil (400 mg/kg x 2 6 hrs apart) and D1, D2, D3, individual mice
[8] = 50 mg foscarnet 1 hr prior to both doses of 5-Flurouracil (500 mg/kg x 2 6 hrs apart) and D1, D2, D3, group Average
[9] = 50 mg foscarnet 1 hr prior to both doses of 5-Flurouracil (500 mg/kg x 2 6 hrs apart) and D1, D2, D3, individual mice
[10] = group 1: 50 mg/kg foscarnet 1 hr prior to first 5-Flurouracil dose (400 mg/kg x 2) and 3 days after

**Q.** Which “protection against the deleterious effects of radiation treatment” value ([1]; 50 mg per kilogram bodyweight, 14 Gy partial body) does the source give for `O=C(O)P(=O)(O)O` [foscarnet, phosphonoformic acid trisodium salt hexahydrate] here?
**A.** protects completely

**Q.** And the “incidence of diarrhoea (perianal soilage)” value ([1]; 50 mg/kg intra-peritoneal 1 hr before 14 Gy and daily for 5 days, Day 3)?
**A.** No

**Q.** And the “incidence of diarrhoea (perianal soilage)” value ([1]; 50 mg/kg intra-peritoneal 1 hr before 14 Gy and daily for 5 days, Day 4)?
**A.** No diarrhoea

**Q.** What about the “incidence of diarrhoea (perianal soilage)” value ([1]; 50 mg/kg intra-peritoneal 1 hr before 14 Gy and daily for 5 days, Day 5) of the same molecule?
**A.** No diarrhoea

**Q.** What about the “incidence of diarrhoea (perianal soilage)” value ([1]; 50 mg/kg intra-peritoneal 1 hr before 14 Gy and daily for 5 days, Day 6) of the same molecule?
**A.** No diarrhoea

**Q.** What about the “incidence of diarrhoea (perianal soilage)” value ([1]; 50 mg/kg intra-peritoneal 1 hr before 14 Gy and daily for 5 days, Day 7) of the same molecule?
**A.** No diarrhoea

**Q.** What about the “incidence of diarrhoea or associated morbidity compared to vehicle controls” value ([1]; 100 mg per kilogram bodyweight, 14 Gy partial body) of the same molecule?
**A.** reduced incidence of diarrhoea or associated morbidity

**Q.** And the “incidence of diarrhoea (perianal soilage)” value ([1]; 100 mg/kg intra-peritoneal 1 hr before 14 Gy and daily for 5 days, Day 3)?
**A.** No

**Q.** And the “incidence of diarrhoea (perianal soilage)” value ([1]; 100 mg/kg intra-peritoneal 1 hr before 14 Gy and daily for 5 days, Day 4)?
**A.** No diarrhoea

**Q.** And the “incidence of diarrhoea (perianal soilage)” value ([1]; 100 mg/kg intra-peritoneal 1 hr before 14 Gy and daily for 5 days, Day 5)?
**A.** No diarrhoea

**Q.** What about the “incidence of diarrhoea (perianal soilage)” value ([1]; 100 mg/kg intra-peritoneal 1 hr before 14 Gy and daily for 5 days, Day 6) of the same molecule?
**A.** 2 mice had

**Q.** And the “incidence of diarrhoea (perianal soilage)” value ([1]; 100 mg/kg intra-peritoneal 1 hr before 14 Gy and daily for 5 days, Day 7)?
**A.** 1 mouse had diarrhoea

**Q.** And the “Protection Factor” value ([2]; 50 mg foscarnet 1 hr prior to 1st dose of 5-Flurouracil (400 mg/kg x 2 6 hrs apart) and D1, D2 & D3)?
**A.** 1.87

**Q.** What about the corrected crypts/circumference [2, 4] of the same molecule?
**A.** 20.0

**Q.** And the no. crypts/circumference [2, 4]?
**A.** 21.5

**Q.** What about the corrected crypts/circumference [2, 5] of the same molecule?
**A.** 11.0 and 23.2 and 17.2 and 16.5 and 32.1

**Q.** What about the no. crypts/circumference [2, 5] of the same molecule?
**A.** 12.4 and 24.1 and 17.9 (2×) and 35.2

**Q.** And the “Protection Factor” value ([2]; 50 mg foscarnet 1 hr prior to both doses of 5-Flurouracil (400 mg/kg x 2 6 hrs apart) and D1, D2 & D3)?
**A.** 1.59

**Q.** And the corrected crypts/circumference [2, 6]?
**A.** 17.0

**Q.** What about the no. crypts/circumference [2, 6] of the same molecule?
**A.** 18.1

**Q.** And the corrected crypts/circumference [2, 7]?
**A.** 14.3 and 16.3 and 20.6 and 11.4 and 22.5

**Q.** What about the no. crypts/circumference [2, 7] of the same molecule?
**A.** 15.9 and 16.8 and 22.8 and 11.4 and 23.4

**Q.** And the “Protection Factor” value ([2]; 50 mg foscarnet 1 hr prior to both doses of 5-Flurouracil (500 mg/kg x 2 6 hrs apart) and D1, D2 & D3)?
**A.** 1.46

**Q.** And the corrected crypts/circumference [2, 8]?
**A.** 10.2

**Q.** And the no. crypts/circumference [2, 8]?
**A.** 10.5

**Q.** What about the corrected crypts/circumference [2, 9] of the same molecule?
**A.** 8.5 and 13.0 and 16.3 and 5.6 and 7.6

**Q.** What about the no. crypts/circumference [2, 9] of the same molecule?
**A.** 8.5 and 13.0 and 17.9 and 6.0 and 7.3

**Q.** And the “numbers of intestinal crypts after exposure to 5-Flurouracil” value ([2]; Groups 1, 2 and 4 (50 mg foscarnet/kg regimens))?
**A.** increased numbers of intestinal crypts

**Q.** What about the “more crypts compared to mice treated with vehicle alone” value [2, 10] of the same molecule?
**A.** ~50%

**Q.** What about the “more small intestinal clonogenic stem cells survived” value [2, 10] of the same molecule?
**A.** at least 50%

**Q.** What about the “deaths or signs of illness” value [3] of the same molecule?
**A.** no deaths or signs of illness

**Q.** What about the “tolerability of relatively high oral doses” value [3] of the same molecule?
**A.** tolerated without notable toxicity

**Q.** What about the “kidney damage judged by histological sectioning” value ([3]; end of treatment period) of the same molecule?
**A.** neither of the groups showed overt signs of kidney damage

**Q.** What about the “BrdUrd labelling index in intestinal crypt cells (FIG. 5)” value ([3]; versus vehicle control) of the same molecule?
**A.** stimulating effect on intestinal crypt cells
